Measured values: patent US10745395B2, “Compounds for their use as drugs for the treatment and/or the prevention of infection(s) caused by biofilm-forming bacteria” (CENTRE NATIONAL DE LA RECHERCHE SCIENTIFIQUE, priority 2014, dated 2020)

Columns and labels:
Type in all cases: cell-based, Pseudomonas aeruginosa
[1] = tested on: P. aeruginosa strain PAR 20 biofilm; assay: Reduction of biofilm growth (percent vs culture control)
[2] = tested on: P. aeruginosa strain PAR 50 biofilm; assay: Early biofilm model, Congo red staining; conditions: for absorbance (Congo red, biofilm formation): early biofilm, 0.9 mM, 492 nm
Method in brief: (§1)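 Biofilm set up from 1×10^8 CFU/ml P. aeruginosa in TSB, centrifuged 10 min at 2000 rpm; iminosugars at 0.9 mM added at seeding, incubated up to 48 h at 37° C. Biofilm stained with 0.1% Congo red for 30 min and read at 492 nm at 0, 0.5, 8, 24 and 48 h, with viable counts in parallel; TSB-only cultures served as control.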

[3] = tested on: P. aeruginosa strain PAR 5 biofilm; assay: Early biofilm model, Congo red staining; conditions: for absorbance (Congo red, biofilm formation): 0.9 mM, 492 nm
Method in brief: as §1

[4] = tested on: P. aeruginosa strain PAR 20 biofilm; assay: Early biofilm model, Congo red staining; conditions: for absorbance (Congo red, biofilm formation): early biofilm, 0.9 mM, 492 nm
Method in brief: as §1

[5] = tested on: P. aeruginosa strain PAR 5; assay: Number of viable bacteria in early and mature biofilm (viable count)
Method in brief: (§2)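 Biofilm contents of P. aeruginosa PAR 5, PAR 20 or PAR 50 wells sampled at 0-96 h, iminosugars added at 48 h. Decimal dilutions in TSB were plated on McConkey agar, incubated 24 h at 37° C., and colonies counted as log CFU/ml; detection limit 100 CFU/ml.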

[6] = tested on: P. aeruginosa strain PAR 50; assay: as above
Method in brief: as §2

[7] = tested on: P. aeruginosa strain PAR 20; assay: as above
Method in brief: as §2

[8] = tested on: P. aeruginosa strain PAR 50 biofilm; assay: Mature biofilm model, Congo red staining; conditions: for absorbance (Congo red, biofilm development): mature biofilm, compound added 48 h after induction of biofilm
Method in brief: (§3)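 Compounds added 48 h after bacterial adherence in 96-well plates; biofilm checked at 48, 48.5, 56, 72 and 96 h. Biomass stained with 0.1% Congo red for 30 min at room temperature, washed, absorbance read at 492 nm. Triplicate means ±SD.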

[9] = tested on: P. aeruginosa strain PAR 5 biofilm; assay: Mature biofilm model, Congo red staining; conditions: for absorbance (Congo red, biofilm development): mature biofilm, compound added 48 h after induction of biofilm
Method in brief: as §3

[10] = tested on: P. aeruginosa strain PAR 20 biofilm; assay: Mature biofilm model, Congo red staining; conditions: for absorbance (Congo red, biofilm development): mature biofilm, compound added 48 h after induction of biofilm
Method in brief: as §3

[11] = tested on: P. aeruginosa strain PAR 5 biofilm; assay: Reduction of biofilm growth (percent vs culture control)
Method in brief: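 Iminosugars at 0.9 mM final were added to P. aeruginosa in TSB either at seeding (early biofilm, 48 h at 37° C) or 48 h after bacterial adherence (mature biofilm). Biofilm stained with Congo Red and read spectrophotometrically; percent decrease in thickness is the mean of 3 measurements relative to untreated control (100%).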

[12] = tested on: P. aeruginosa strain PAR 50 biofilm; assay: as above
Method in brief: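 Biofilms grown in TSB at 37 °C; compounds at 0.9 mM final added at inoculation (early biofilm, 48 h) or 48 h after bacterial adherence (mature biofilm). Congo Red-stained biofilm read by spectrophotometry, mean of 3 measurements; reduction expressed as percent versus untreated control set to 100%.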

[13] = in comparison with culture control

Compound: CCC[C@H]1N[C@@H](CO)[C@H](O)[C@H]1O [Compound 4, β-1-C-propyl-1,4-dideoxy-1,4-imino-L-arabinitol]
- reduction of biofilm growth ([1]; 8 hours of incubation): about 60%
- reduction of biofilm growth ([1]; 24 hours of incubation): about 35%
- reduction of biofilm growth ([1]; 48 hours of incubation): about 45%
- reduction of biofilm growth ([1]; 72 hours of incubation): about 0%
- effect on biofilm growth ([1]; notably an early biofilm): can reduce the biofilm growth
- absorbance (Congo red, biofilm formation) ([2]; 8 hours): about 0.8 a.u.
- absorbance (Congo red, biofilm formation) ([2]; 24 hours): about 1.4 a.u.
- absorbance (Congo red, biofilm formation) ([2]; 48 hours): about 0.9 a.u.
- effect on formation of an early biofilm [2, 13]: inhibit the formation of an early biofilm
- biofilm formation at 8 hours, 24 hours and 48 hours ([3]; early biofilm): no biofilm formation
- absorbance (Congo red, biofilm formation) ([3]; early biofilm, 8 hours): about 0.25 a.u.
- absorbance (Congo red, biofilm formation) ([3]; early biofilm, 24 hours): about 0.25 a.u.
- absorbance (Congo red, biofilm formation) ([3]; early biofilm, 48 hours): about 0.25 a.u.
- effect on formation of an early biofilm [3, 13]: inhibit the formation of an early biofilm
- absorbance (Congo red, biofilm formation) ([4]; 8 hours): about 0.6 a.u.
- absorbance (Congo red, biofilm formation) ([4]; 24 hours): about 1.0 a.u.
- absorbance (Congo red, biofilm formation) ([4]; 48 hours): about 0.75 a.u.
- effect on formation of an early biofilm [4, 13]: inhibit the formation of an early biofilm
- number of viable P. aeruginosa ([5]; early biofilm, 0 h): 9 × 10^6 CFU/ml
- number of viable P. aeruginosa ([5]; early biofilm, 8 h): 3 × 10^6 CFU/ml
- number of viable P. aeruginosa ([5]; early biofilm, 24 h): 9 × 10^7 CFU/ml
- number of viable P. aeruginosa ([5]; early biofilm, 48 h): 3 × 10^7 CFU/ml
- number of viable P. aeruginosa ([5]; mature biofilm, 56 h): 4 × 10^8 CFU/ml
- number of viable P. aeruginosa ([5]; mature biofilm, 72 h): 3 × 10^8 CFU/ml
- number of viable P. aeruginosa ([5]; mature biofilm, 96 h): 2 × 10^9 CFU/ml
- number of viable P. aeruginosa ([6]; early biofilm, 0 h): 1 × 10^7 CFU/ml
- number of viable P. aeruginosa ([6]; early biofilm, 8 h): 2 × 10^8 CFU/ml
- number of viable P. aeruginosa ([6]; early biofilm, 24 h): 7 × 10^8 CFU/ml
- number of viable P. aeruginosa ([6]; early biofilm, 48 h): 1 × 10^8 CFU/ml
- number of viable P. aeruginosa ([6]; mature biofilm, 56 h): 3 × 10^9 CFU/ml
- number of viable P. aeruginosa ([6]; mature biofilm, 72 h): 9 × 10^9 CFU/ml
- number of viable P. aeruginosa ([6]; mature biofilm, 96 h): 1 × 10^9 CFU/ml
- number of viable P. aeruginosa ([7]; early biofilm, 0 h): 5 × 10^6 CFU/ml
- number of viable P. aeruginosa ([7]; early biofilm, 8 h): 2 × 10^7 CFU/ml
- number of viable P. aeruginosa ([7]; early biofilm, 24 h): 4 × 10^8 CFU/ml
- number of viable P. aeruginosa ([7]; early biofilm, 48 h): 3 × 10^9 CFU/ml
- number of viable P. aeruginosa ([7]; mature biofilm, 56 h): 9 × 10^8 CFU/ml
- number of viable P. aeruginosa ([7]; mature biofilm, 72 h): 8 × 10^7 CFU/ml
- number of viable P. aeruginosa ([7]; mature biofilm, 96 h): 4 × 10^8 CFU/ml
- influence on mature biofilm formation [8]: weak influence
- absorbance (Congo red, biofilm development) ([8]; 48 hours): about 1.4 a.u.
- absorbance (Congo red, biofilm development) ([8]; 56 hours): about 1.4 a.u.
- absorbance (Congo red, biofilm development) ([8]; 72 hours): about 1.5 a.u.
- absorbance (Congo red, biofilm development) ([8]; 96 hours): about 1.75 a.u.
- influence on mature biofilm formation [9]: weak influence
- absorbance (Congo red, biofilm development) ([9]; 48 hours): about 0.5 a.u.
- absorbance (Congo red, biofilm development) ([9]; 56 hours): about 1.25 a.u.
- absorbance (Congo red, biofilm development) ([9]; 72 hours): about 1.25 a.u.
- absorbance (Congo red, biofilm development) ([9]; 96 hours): about 0.5 a.u.
- influence on mature biofilm formation [10]: weak influence
- absorbance (Congo red, biofilm development) ([10]; 48 hours): about 0.5 a.u.
- absorbance (Congo red, biofilm development) ([10]; 56 hours): about 0.75 a.u.
- absorbance (Congo red, biofilm development) ([10]; 72 hours): about 1.25 a.u.
- absorbance (Congo red, biofilm development) ([10]; 96 hours): about 1.75 a.u.
- reduction of biofilm growth ([11]; 8 hours of incubation): about 90%
- reduction of biofilm growth ([11]; 24 hours of incubation): about 90%
- reduction of biofilm growth ([11]; 48 hours of incubation): about 25%
- reduction of biofilm growth ([11]; 72 hours of incubation): about 10%
- effect on biofilm growth ([11]; notably an early biofilm): can reduce the biofilm growth
- reduction of biofilm growth ([12]; 8 hours of incubation): about 60%
- reduction of biofilm growth ([12]; 24 hours of incubation): about 35%
- reduction of biofilm growth ([12]; 48 hours of incubation): about 45%
- reduction of biofilm growth ([12]; 72 hours of incubation): about 30%
- effect on biofilm growth ([12]; notably an early biofilm): can reduce the biofilm growth
